According to patent publication US20050228041A1, “Protective and therapeutic uses for tocotrienols” (priority 2003, published 2005):

Assays:
[1] = tested on: 12-lipoxygenase activity in HT4 neurons; assay: 12(S)-HETE, product of 12-lipoxygenase activity, in glutamate-treated HT4 neurons (HPLC); type: cell-based, mouse; conditions: HT4, glutamate 12 h
Description: Neurons isolated from 12-LOX deficient mice are resistant to glutamate-induced death (FIG. 4). This striking finding reinforced our interest to test α-tocotrienol as an inhibitor of glutamate-inducible 12-LOX activity in neuronal cells. Referring to FIG. 5, Products of 12-lipoxygenase activity in glutamate-treated neurons were evaluated using a HPLC-based analytical approach. […] ND, not detectable. It was observed that the by-product of 12-LOX activity, 12(S)-HETE, was not detected in HT4 cells under basal culture conditions (FIG. 5). […] However, such increase was prevented in α-tocotrienol treated cells (FIG. 5). This line of observation led to the question whether over-expression of 12-LOX in HT4 cells would sensitize them to glutamate-induced cytotoxicity and whether α-tocotrienol could counter such toxicity.
12-HETE detection. 12-Hydroxy-eicosatetraenoic acid (HETE) from HT4 cells was detected using a HPLC-UV based method (Eberhard et al., 2000). Immunofluorescence microscopy. For immunofluorescence microscopy, primary cultures of rat cortical neurons were plated on 35 mm plates pre-coated with poly-L-lysine. After 24 h, cell were treated with α-tocotrienol or BL15 for 5 minutes and then challenged with glutamate or exposed to glutamate. […]

[2] = molecular target: T1, Purified 12-lipoxygenase (porcine leukocyte) (Sus scrofa, UniProt P16469); assay: Pure 12-lipoxygenase activity with [14C]-arachidonic acid (thin layer chromatography); type: biochemical; conditions: 10 units enzyme, [14C]-arachidonic acid 25 μM, 30 min, 37° C.
T1 construct: purchased Biomol Research labs Inc, Plymouth Meeting, Pa
T1 sequence (P16469 1-663): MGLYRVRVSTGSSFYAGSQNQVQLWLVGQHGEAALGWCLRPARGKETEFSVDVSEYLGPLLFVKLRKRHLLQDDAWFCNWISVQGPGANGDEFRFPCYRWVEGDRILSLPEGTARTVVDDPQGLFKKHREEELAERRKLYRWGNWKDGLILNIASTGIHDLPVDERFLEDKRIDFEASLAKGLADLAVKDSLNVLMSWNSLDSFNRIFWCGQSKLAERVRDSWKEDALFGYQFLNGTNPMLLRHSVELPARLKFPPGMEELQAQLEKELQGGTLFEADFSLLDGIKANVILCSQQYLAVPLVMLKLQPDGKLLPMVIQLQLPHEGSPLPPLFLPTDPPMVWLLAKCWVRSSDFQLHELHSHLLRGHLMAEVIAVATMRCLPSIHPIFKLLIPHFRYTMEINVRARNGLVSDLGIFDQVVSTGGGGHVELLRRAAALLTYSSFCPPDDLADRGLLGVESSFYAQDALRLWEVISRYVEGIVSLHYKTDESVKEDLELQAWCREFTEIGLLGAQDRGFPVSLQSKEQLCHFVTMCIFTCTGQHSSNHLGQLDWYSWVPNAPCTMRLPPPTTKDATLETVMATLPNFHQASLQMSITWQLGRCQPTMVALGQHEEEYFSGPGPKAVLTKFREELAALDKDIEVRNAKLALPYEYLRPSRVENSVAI
Description: Referring to FIG. 6, HT4 cells were subjected to glutamate treatment for 2 h. […] Purified 12-lipoxygenase (porcine leukocyte; 10 units) was incubated with [^14C]-arachidonic acid (25 μM) for 30 min at 37° C. Arachidonic acid and 12-HETE were resolved using thin layer chromatography as described in Materials & Methods We observed that in HT4 cells, treatment with glutamate mobilized cytosolic 12-LOX protein to the cell membrane (FIGS. 6A&B).
12-Lipoxygenase activity. To investigate whether tocotrienol directly affect the activity of 12-LOX (12-LOX), 10 units of 12-LOX (Biomol Research labs Inc, Plymouth Meeting, Pa.) was incubated at room temperature for 15 min with or without tocotrienol as indicated in the respective figure legend. The reaction mixture contained 50 mM Tris HCl, pH 7.4 and 1 mM EDTA. After 15 min, the reaction was initiated by adding 25 μM [1-^14C]-arachidonic acid per sample. Samples were kept at 37° C. for 30 minutes. The reaction was terminated by adding 200 μl of ice-cold stop solution containing diethyl ether, methanol and 1 M citric acid at a ratio of 30:4:1 by volume. After mixing, samples were centrifuged and the ethereal extracts were spotted on a silica gel thin layer plate. […] Distribution of radioactivity of the substrate and products on the plate were quantified using a imaging analyzer.

CC(C)=CCC/C(C)=C/CC/C(C)=C/CC[C@]1(C)CCc2c(C)c(O)c(C)c(C)c2O1 [α-tocotrienol]
glutamate-induced increase of cellular 12(S)-HETE content [1]: prevented
inhibition of pure 12-lipoxygenase activity [2]: dose-dependently inhibited
